Results from patent US10988451B2, “MCL-1 inhibitors” (Gilead Sciences, Inc., priority 2018, dated 2021).

target: MCL-1/Bim (Homo sapiens (Human), UniProt Q07820); experiment: MCL-1/Bim Binding AlphaLISA Assay; conditions: 6xHis-Mcl-1 (171-327) and biotinylated Bim peptide (51-76)
Experimental: MCL-1/Bim Binding AlphaLISA Assay.
Inhibition of the MCL-1 and Bim interaction was measured in the following AlphaLISA assay.
Recombinant human MCL-1 protein (C-terminal 6×His Tagged Mcl-1 containing residues 171-327) was generated at Gilead Sciences, Inc. (Foster City, Calif.). A biotinylated peptide derived from human Bim (residues 51-76) was purchased from CPC Scientific (Sunnyvale, Calif.). (CPC 834113). AlphaLISA anti-6His-acceptor beads (AL128R), AlphaScreen Streptavidin donor beads (6760002B), and Proxiplate-384 Plus (6008289) were purchased from PerkinElmer.
The AlphaLISA assay was performed in a 384-well Proxiplate in a total volume of 40 μL. The reaction mixture contained 0.0625 nM 6× His-Mcl-1 (171-327), 0.0625 nM biotinylated-Bim peptide, 10 μg/mL AlphaLISA anti-6×His-AlphaLISA acceptor beads, 40 μg/mL AlphaScreen streptavidin donor beads, and serially diluted test compounds in the binding buffer (20 mM Hepes, pH 7.5 (Teknova H1035); 150 mM NaCl (Promega V4221); 0.002% Brij 35 (Thermo Scientific 20150); 1 mM Dithiothreitol (DTT) Solution (Affymetrix 70726); 0.01% BSA (BioLabs B9000S)). 1,000× test compounds were pre-spotted onto 384-well Proxiplate (Labcyte Echo) by Echo 555 Liquid Handler (Labcyte Inc., San Jose, Calif.) followed by incubation of 5 μl Mcl-1(171-327) for 1 hour. Then 5 μL Bim (51-76) was added and incubated for 2 hours. Five μL AlphaLISA anti-6His-AlphaLISA acceptor beads were then added for 1 hour followed by addition of 5 μL AlphaScreen streptavidin donor beads for 1 hour. The reaction plates were then read on an Envision multimode reader (PerkinElmer) using AlphaScreen settings. […] Percent inhibition was calculated as shown below: % Inhibition=100%*(Well−Neg)/(Pos−Neg) Neg: negative control, DMSO Pos: positive control, no Mcl-1 protein, no biotinylated-Bim peptide

MCL-1/Bim, sequence (Q07820 171-327): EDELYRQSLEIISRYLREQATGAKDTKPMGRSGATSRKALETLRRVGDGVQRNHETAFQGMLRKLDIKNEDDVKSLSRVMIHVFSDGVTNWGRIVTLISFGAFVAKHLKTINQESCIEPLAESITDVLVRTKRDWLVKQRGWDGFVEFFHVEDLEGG

Row | Compound | IC50 [nM]
1 | CCC(=O)NS1(=O)=NC(=O)c2ccc3c(c2)N(C[C@@H]2CC[C@H]2[C@@H](OC)/C=C/CCC1)C[C@@]1(CCCc2cc(Cl)ccc21)CO3 (single isomer, unassigned) [Example 4] | 0.7
2 | CCOC(=O)NS1(=O)=NC(=O)c2ccc3c(c2)N(C[C@@H]2CC[C@H]2[C@@H](OC)/C=C/CCC1)C[C@@]1(CCCc2cc(Cl)ccc21)CO3 (single isomer, unassigned) [Example 10] | 3.6
3 | CO[C@H]1/C=C/CCCS(=O)(NC(=O)CCc2ccnn2C)=NC(=O)c2ccc3c(c2)N(C[C@@H]2CC[C@H]21)C[C@@]1(CCCc2cc(Cl)ccc21)CO3 (single isomer, unassigned) [Example 48] | 3.7
4 | CCC(=O)N[S@]1(=O)=NC(=O)c2ccc3c(c2)N(C[C@@H]2CC[C@H]2[C@@H](OC)/C=C/CCC1)C[C@@]1(CCCc2cc(Cl)ccc21)CO3 [Example 3] | 4.1
5 | CO[C@H]1/C=C/CCC[S@@](N)(=O)=NC(=O)c2ccc3c(c2)N(C[C@@H]2CC[C@H]21)C[C@@]1(CCCc2cc(Cl)ccc21)CO3 [Example 5] | 60.2
6 | CCOC(=O)N[S@]1(=O)=NC(=O)c2ccc3c(c2)N(C[C@@H]2CC[C@H]2[C@@H](OC)/C=C/CCC1)C[C@@]1(CCCc2cc(Cl)ccc21)CO3 [Example 9] | 6.6
7 | CCC(=O)N[S@@]1(=O)=NC(=O)c2ccc3c(c2)N(C[C@@H]2CC[C@H]2[C@@H](OC)CCCCC1)C[C@@]1(CCCc2cc(Cl)ccc21)CO3 [Example 11] | 6.5
8 | CCNC(=O)N[S@@]1(=O)=NC(=O)c2ccc3c(c2)N(C[C@@H]2CC[C@H]2[C@@H](OC)CCCCC1)C[C@@]1(CCCc2cc(Cl)ccc21)CO3 [Example 13] | 1.8
9 | CCNC(=O)N[S@@]1(=O)=NC(=O)c2ccc3c(c2)N(C[C@@H]2CC[C@H]2[C@@H](OC)CCCCC1)C[C@@]1(CCCc2cc(Cl)ccc21)CO3 [Example 14] | 0.3
10 | CCC(=O)N[S@@]1(=O)=NC(=O)c2ccc3c(c2)N(C[C@@H]2CC[C@H]2[C@@H](OC)CCCCC1)C[C@@]1(CCCc2ccccc21)CO3 [Example 16] | 4.2
11 | CCC(=O)N[S@@]1(=O)=NC(=O)c2ccc3c(c2)N(C[C@@H]2CC[C@H]2[C@@H](O)/C=C/CCC1)C[C@@]1(CCCc2cc(Cl)ccc21)CO3 [Example 62] | 0.4
12 | CCC(=O)N[S@]1(=O)=NC(=O)c2ccc3c(c2)N(C[C@@H]2CC[C@H]2[C@@H](O)/C=C/CCC1)C[C@@]1(CCCc2cc(Cl)ccc21)CO3 [Example 63] | 1.4
13 | CCC(=O)N[S@]1(=O)=NC(=O)c2ccc3c(c2)N(C[C@@H]2CC[C@H]2[C@@H](OC)/C=C/CCCC1)C[C@@]1(CCCc2cc(Cl)ccc21)CO3 [Example 69] | 4
14 | CO[C@H]1/C=C/C[C@H](C)C[S@@](=O)(NC(=O)NCC2CC2)=NC(=O)c2ccc3c(c2)N(C[C@@H]2CC[C@H]21)C[C@@]1(CCCc2cc(Cl)ccc21)CO3 [Example 107] | 0.1
15 | COc1nn(C)cc1C(=O)N[S@@]1(=O)=NC(=O)c2ccc3c(c2)N(C[C@@H]2CC[C@H]2[C@@H](O)/C=C/[C@H](O)[C@H](C)C1)C[C@@]1(CCCc2cc(Cl)ccc21)CO3 [Example 279] | 0.041
16 | CO[C@H]1/C=C/C[C@H](C)C[S@@](=O)(NC(=O)C2CC(OC(F)F)C2)=NC(=O)c2ccc3c(c2)N(C[C@@H]2CC[C@H]21)C[C@@]1(CCCc2cc(Cl)ccc21)CO3 (stereo partly drawn) [Example 431] | 0.121

test system: SKBR3 cells; experiment: SKBR3 Cell Viability Assay; type: cell-based; conditions: 72 hours, CellTiter Glo, read-out: MCL-1 CV SKBR3 EC50
Experimental: SKBR3 Cell Viability Assay Materials
SKBR3 Cells (ATCC HTB-30) were obtained from ATCC (Manassas, Va.) and cultured in McCoy 5A's medium (ATCC 30-2007)+10% fetal bovine serum (SH30071.03, HyClone, Pittsburgh, Pa.) plus 1× Penicillin-Streptomycin L-glutamine (Corning 30-009-C1, Corning, N.Y.)).
The cell viability assay was conducted in a 384-well tissue culture plate (Grenier 781086, Monroe, N.C.) in a total volume of 70 μL. Test compounds were prepared in 1,000×, serially diluted, and pre-spotted into 384-well tissue culture plate by Echo 555 Liquid Handler (Labcyte Inc., San Jose, Calif.). Seventy μ1 of 6,000 SKBR3 cells were dispensed into each well of the plate and incubated at 37° C. with 5% CO2 for 72 hours. At the end of incubation, 2× CellTiter Glo (CTG) reagents (1 part buffer with 2 parts substrate) (Promega, Madison, Wis.) were prepared, and the plate and the reagent were equilibrated to room temperature for 30 minutes. CTG reagent was added to each plate by Biomek FX at 20 μL/well with 5 times pipetting and mixing to induce cell lysis. Luminescence was read by Envision multimode reader (PerkinElmer). […] Percent inhibition was calculated as followed: % Inhibition=100%*(Well−Neg)/(Pos−Neg) Neg, negative control, DMSO Pos, positive control, 10 μM Puromycin

Row | Compound | EC50 [nM]
17 | CO[C@H]1/C=C/CCC[S@@](=O)(NC(=O)CC2CC2)=NC(=O)c2ccc3c(c2)N(C[C@@H]2CC[C@H]21)C[C@@]1(CCCc2cc(Cl)ccc21)CO3 [Example 21] | 1300
18 | CO[C@H]1/C=C/CCC[S@@](=O)(NC(=O)CC(F)(F)F)=NC(=O)c2ccc3c(c2)N(C[C@@H]2CC[C@H]21)C[C@@]1(CCCc2cc(Cl)ccc21)CO3 [Example 23] | 1450
19 | CO[C@H]1/C=C/CCC[S@@](=O)(NC(=O)C2COC2)=NC(=O)c2ccc3c(c2)N(C[C@@H]2CC[C@H]21)C[C@@]1(CCCc2cc(Cl)ccc21)CO3 [Example 24] | 891
20 | CO[C@H]1/C=C/CCC[S@@](=O)(NC(=O)C2CC2)=NC(=O)c2ccc3c(c2)N(C[C@@H]2CC[C@H]21)C[C@@]1(CCCc2cc(Cl)ccc21)CO3 [Example 27] | 2080
21 | CO[C@H]1/C=C/CCC[S@@](=O)(NC(=O)CCS(C)(=O)=O)=NC(=O)c2ccc3c(c2)N(C[C@@H]2CC[C@H]21)C[C@@]1(CCCc2cc(Cl)ccc21)CO3 [Example 28] | 8410
22 | CO[C@H]1/C=C/CCC[S@@](=O)(NC(=O)Cc2ccnn2C)=NC(=O)c2ccc3c(c2)N(C[C@@H]2CC[C@H]21)C[C@@]1(CCCc2cc(Cl)ccc21)CO3 [Example 29] | 1840
23 | CO[C@H]1/C=C/CCC[S@@](=O)(NC(=O)Cc2ncccn2)=NC(=O)c2ccc3c(c2)N(C[C@@H]2CC[C@H]21)C[C@@]1(CCCc2cc(Cl)ccc21)CO3 [Example 30] | 1840
24 | CO[C@H]1/C=C/CCC[S@@](=O)(NC(=O)C2CCC2)=NC(=O)c2ccc3c(c2)N(C[C@@H]2CC[C@H]21)C[C@@]1(CCCc2cc(Cl)ccc21)CO3 [Example 31] | 2590
25 | COC1CCn2cc(C(=O)N[S@@]3(=O)=NC(=O)c4ccc5c(c4)N(C[C@@H]4CC[C@H]4[C@@H](OC)/C=C/C[C@H](C)C3)C[C@@]3(CCCc4cc(Cl)ccc43)CO5)cc2C1 (stereo partly drawn) [Example 175] | 33.9
26 | CO[C@H]1/C=C/C[C@H](C)C[S@@](=O)(NC(=O)c2cc3n(c2)CCc2c-3cnn2C)=NC(=O)c2ccc3c(c2)N(C[C@@H]2CC[C@H]21)C[C@@]1(CCCc2cc(Cl)ccc21)CO3 [Example 208] | 45
27 | CO[C@H]1/C=C/C[C@H](C)C[S@@](=O)(NC(=O)N2C[C@@H](OC)[C@@H]2C)=NC(=O)c2ccc3c(c2)N(C[C@@H]2CC[C@H]21)C[C@@]1(CCCc2cc(Cl)ccc21)CO3 [Example 253] | 39.2
28 | COC1CN(C(=O)N[S@@]2(=O)=NC(=O)c3ccc4c(c3)N(C[C@@H]3CC[C@H]3[C@@H](O)/C=C/C[C@H](C)C2)C[C@@]2(CCCc3cc(Cl)ccc32)CO4)C1 [Example 266] | 53.8
29 | COc1ccc(C(=O)N[S@@]2(=O)=NC(=O)c3ccc4c(c3)N(C[C@@H]3CC[C@H]3[C@@H](OC)/C=C/C[C@H](C)C2)C[C@@]2(CCCc3cc(Cl)ccc32)CO4)cc1 [Example 273] | 81
30 | CO[C@H]1/C=C/C[C@H](C)C[S@@](=O)(NC(=O)N2CC(OC(=O)N(C)C)C2)=NC(=O)c2ccc3c(c2)N(C[C@@H]2CC[C@H]21)C[C@@]1(CCCc2cc(Cl)ccc21)CO3 [Example 292] | 45.1
31 | CO[C@H]1/C=C/C[C@H](C)C[S@@](=O)(NC(=O)c2cn(C)nc2OCCN2CCOCC2)=NC(=O)c2ccc3c(c2)N(C[C@@H]2CC[C@H]21)C[C@@]1(CCCc2cc(Cl)ccc21)CO3 [Example 319] | 19.9
32 | CO[C@H]1/C=C\C[C@H](C)[C@@H](C)[S@@](=O)(NC(=O)COC2CCOCC2)=NC(=O)c2ccc3c(c2)N(C[C@@H]2CC[C@H]21)C[C@@]1(CCCc2cc(Cl)ccc21)CO3 [Example 406] | 332

same assay, conditions: Homo sapiens, SK-BR-3, 72 h, CellTiter Glo, read-out: MCL-1 CV SKBR3 EC50

Row | EC50 [nM] | Compound
33 | 8450 | CO[C@H]1/C=C/CCCS(=O)(NC(=O)CCc2ccnn2C)=NC(=O)c2ccc3c(c2)N(C[C@@H]2CC[C@H]21)C[C@@]1(CCCc2cc(Cl)ccc21)CO3 (single isomer, unassigned) [Example 48]
34 | 1400 | COc1nn(C)cc1C(=O)NS1(=O)=NC(=O)c2ccc3c(c2)N(C[C@@H]2CC[C@H]2[C@@H](OC)/C=C/C[C@H](C)C1)C[C@@]1(CCCc2cc(Cl)ccc21)CO3 (single isomer, unassigned) [Example 388]
35 | 24.1 | COc1nn(C)cc1C(=O)N[S@@]1(=O)=NC(=O)c2ccc3c(c2)N(C[C@@H]2CC[C@H]2[C@@H](OC)/C=C/C[C@H](C)C1)C[C@@]1(CCCc2cc(Cl)ccc21)CO3 [Example 154]
36 | 103 | CO[C@H]1/C=C/C[C@H](C)C[S@@](=O)(NC(=O)c2cc3n(c2F)CCOC3)=NC(=O)c2ccc3c(c2)N(C[C@@H]2CC[C@H]21)C[C@@]1(CCCc2cc(Cl)ccc21)CO3 [Example 174]
